Test results reported in patent US20240417738A1, “IMMUNOTHERAPIES FOR THE TREATMENT OF CANCER” (Ohio State Innovation Foundation, priority 2021, published 2024).

Legend:
[1] = tested on: MC38 cells; assay: Cell viability assay (MTS); format: cell-based, murine; conditions: (SEM)
Procedure: Cell Viability Assay. MC38 cells were seeded at 3000 cells/well in 96-well plates 24 hours before treatments. […] After 72 hour-treatment, cell viability was examined by CellTiter 96R AQueous One Solution (Promega, Madison, WI) per manufacturer protocol. The IC50 for R848 or IVM was determined by R programming.

[2] = tested on: Calreticulin, Hmgb1, Lc3b mRNA in MC38 cells; assay: In vitro gene regulation by RT-qPCR; format: cell-based, murine; conditions: 8 μM, 24 hours
Procedure: MC38 cells were seeded at 3×10^5 cells/well in 6-well plates 24 hours before treatments. […] R848 and IVM were both treated at 8 μM, either as free drug solution or in squalene NE. Total RNA was extracted using TRI reagent (Zymo Research) per manufacturer protocol. cDNA was prepared by high-capacity cDNA reverse transcription kit (Invitrogen, Waltham, MA, USA), and real-time qPCR (RT-qPCR) was done using SsoAdvanced™ Universal SYBRR Green Supermix (Bio-Rad Laboratories, Hercules, CA) on a QuantStudio 7 Flex Real-time PCR System. RT-qPCR primers for murine Calreticulin, Hmgb1, Lc3b, and Actb were purchased from Sigma-Aldrich. Actb was selected as the housekeeping gene control. The relative amount of RNA level was calculated and compared according to the 2-ΔΔCt method.

[3] = Saturated solubility study in squalene NE and PBS; format: physicochemical; conditions: 2 mg/ml, room temperature, 24 hours
Procedure: In the saturated solubility study, R848 or IVM were dissolved in PBS or formulated in NE at 2 mg/ml and incubated at room temperature for 24 hours. Insoluble solid drugs were pelleted down by centrifugation. Supernatants were collected for concentration analysis. R848 concentrations were quantified by UV-Vis spectrometry at 320 nm using a NanoDrop 2000 spectrophotometer. IVM concentrations were quantified by high-performance liquid chromatography (HPLC) using an isocratic mobile phase composed of water/methanol/acetonitrile (8:36:56, v/v/v), an C18 column (Kromasil 150-C-18, 4.6×150 mm), and PDA detection at 230 nm.

For `CC[C@H](C)[C@H]1O[C@]2(CC[C@@H]1C)C[C@@H]1C[C@@H](C/C=C(\C)[C@@H](O[C@H]3C[C@H](OC)[C@@H](O[C@H]4C[C@H](OC)[C@@H](O)[C@H](C)O4)[C@H](C)O3)[C@@H](C)/C=C/C=C3\CO[C@@H]4[C@H](O)C(C)=C[C@@H](C(=O)O1)[C@]34O)O2` [IVM], the IC50 ([1]; 72 hours) was 10.9 ± 4.15 µM, the “Calreticulin mRNA level” value [2] was “did not show significant Calreticulin regulation” and the “Increase of solubility in squalene-based NE compared with PBS” value [3] was 100 fold.
For `CCOCc1nc2c(N)nc3ccccc3c2n1CC(C)(C)O` [R848, 4-amino-2-ethoxymethyl-α, α-dimethyl-1H-imidazol[4,5-c]quinoli-ne-1-ethanol], the IC50 ([1]; Mus musculus, MC-38, 72 hours) was greater than 100 µM and the “Increase of solubility in squalene-based NE compared with PBS” value [3] was 2 fold.
